Measured values from US6521651B1, “Pharmaceutical composition” (Abbott Laboratories, priority 1996, dated 2003).

Experiment: Oral bioavailability studies in dogs
Format: in vivo
Settings: both sexes, beagle, dog, plasma; unformulated solid in a capsule dosage form, 5 mg/kg oral dose in dogs
Protocol: These capsules were administered to fasted dogs with 10 ml of water.
These capsules were administered to non-fasted dogs with ten milliliter of water.
These capsules were administered to fed dogs with ten milliliter of water.
Dogs (beagle dogs, mixed sexes, weighing 7-14 kg) were fasted overnight prior to dosing, but were permitted water ad libitum. Each dog received a 100 μg/kg subcutaneous dose of histamine approximately 30 minutes prior to dosing. Each dog received a single solid dosage form corresponding to a 5 mg/kg dose of the drug. The dose was followed by approximately 10 milliliters of water. Blood samples were obtained from each animal prior to dosing and 0.25, 0.5, 1.0, 1.5, 2, 3, 4, 6, 8, 10 and 12 hours after drug administration. […] Concentrations of parent drug were determined by reverse phase HPLC with low wavelength UV detection following liquid-liquid extraction of the plasma samples. The parent drug area under the curve was calculated by the trapezoidal method over the time course of the study. The absolute bioavailability of each test composition was calculated by comparing the area under the curve after oral dosing to that obtained from a single intravenous dose. Each capsule or capsule composition was evaluated in a group containing at least six dogs; the values reported are averages for each group of dogs.

SMILES: CC(C)c1nc(CN(C)C(=O)N[C@H](C(=O)N[C@@H](Cc2ccccc2)C[C@H](O)[C@H](Cc2ccccc2)NC(=O)OCc2cncs2)C(C)C)cs1 [compound III, (2S,3S,5S)-5-(N-(N-((N-Methyl-N-((2-isopropyl-4-thiazolyl)methyl)-amino)carbonyl)valinyl)amino)-2-(N-((5-thiazolyl)methoxycarbonyl)amino)-1,6-diphenyl-3-hydroxyhexane]
- bioavailability: < 2%
